Results from ChEMBL document CHEMBL5303304, “EUbOPEN Chemogenomics Library - IncuCyte” (2023).

Tests used:
Format in all cases: toxicity, cell-based
Fibroblast = test: Incucyte cell viability with human fibroblast; details: 10 µM, compound concentration 10 uM
U2OS = test: Incucyte cell viability with U2OS; details: human, 10 µM, compound concentration 10 uM
HEK-293T = test: Incucyte cell viability with HEK293T; details: human, 10 µM, compound concentration 10 uM
Further: unitless GR value; below 1 slowed growth and below 0 cell loss.

SMILES | Growth Rate (Fibroblast; 0 h, replicate number 1) | Growth Rate (Fibroblast; 0 h, replicate number 2) | Growth Rate (Fibroblast; 6 h, replicate number 2) | Growth Rate (Fibroblast; 12 h, replicate number 2) | Growth Rate (Fibroblast; 18 h, replicate number 2) | Growth Rate (Fibroblast; 24 h, replicate number 2) | Growth Rate (U2OS; 0 h, replicate number 2) | Growth Rate (U2OS; 12 h, replicate number 1) | Growth Rate (U2OS; 12 h, replicate number 2) | Growth Rate (U2OS; 18 h, replicate number 1) | Growth Rate (U2OS; 18 h, replicate number 2) | Growth Rate (U2OS; 24 h, replicate number 1) | Growth Rate (U2OS; 24 h, replicate number 2) | Growth Rate (HEK-293T; 6 h, replicate number 1) | Growth Rate (HEK-293T; 12 h, replicate number 1) | Growth Rate (HEK-293T; 12 h, replicate number 2) | Growth Rate (HEK-293T; 18 h, replicate number 1) | Growth Rate (HEK-293T; 18 h, replicate number 2) | Growth Rate (HEK-293T; 24 h, replicate number 2) | Growth Rate (Fibroblast; 6 h, replicate number 1) | further results
O=C(Nc1cc(C(F)(F)F)cc(C(F)(F)F)c1)c1cc(Cl)ccc1O [IMD-0354] | -0.62 | -0.02 | -1 | -0.61 | -0.45 | -0.33 | -1 | 0.7 | 0.03 | 0.69 | 0.18 | 0.71 | 0.26 | 0.18 | 0.81 | -0.2 | 0.76 | 0.17 | 0.36 |  | Growth Rate (Fibroblast; 18 h, replicate number 1): -0.63; Growth Rate (Fibroblast; 24 h, replicate number 1): 0.42; Growth Rate (U2OS; 0 h, replicate number 1): -0.14; Growth Rate (U2OS; 6 h, replicate number 1): 0.76; Growth Rate (U2OS; 6 h, replicate number 2): -0.23; Growth Rate (HEK-293T; 6 h, replicate number 2): -0.86
Cc1cc2nc(N3CCC(C(=O)NC4CCCC4)CC3)n(C(C)C)c2cc1C | -1 |  |  | 0.74 | 0.7 | 0.78 | -0.6 | 0.79 | 0.47 |  | 0.67 | 0.95 | 0.8 | 0.3 | 0.77 |  | 0.97 |  |  | 0.17 | Growth Rate (Fibroblast; 12 h, replicate number 1): 0.26; Growth Rate (Fibroblast; 18 h, replicate number 1): 0.48; Growth Rate (Fibroblast; 24 h, replicate number 1): 0.4; Growth Rate (U2OS; 6 h, replicate number 2): 0.39; Growth Rate (HEK-293T; 24 h, replicate number 1): 0.88
CC(C)C[C@H](NC(=O)[C@@H](O)[C@H](N)Cc1ccccc1)C(=O)O [UBENIMEX] |  | -0.85 |  | 0.72 | 0.83 | 0.91 |  | 0.82 |  | 0.94 |  | 0.89 |  | 0.49 | 0.55 |  | 0.49 | 0.98 | 0.92 |  | Growth Rate (U2OS; 0 h, replicate number 1): 0.42; Growth Rate (U2OS; 6 h, replicate number 1): 0.42; Growth Rate (HEK-293T; 0 h, replicate number 1): 0.14; Growth Rate (HEK-293T; 24 h, replicate number 1): 0.59
CCCCCCCCCCCCCC(=O)O[C@@H]1[C@@H](C)[C@@]2(O)[C@@H](C=C(CO)C[C@]3(O)C(=O)C(C)=C[C@@H]23)[C@@H]2C(C)(C)[C@]12OC(C)=O [PHORBOL MYRISTATE ACETATE] |  | -0.74 | -1 | 0.09 | 0.85 | 0.78 | -1 | 0.98 |  | 0.96 | 0.92 | 0.96 | 0.72 |  |  |  |  | 0.99 | 0.75 | 0.89 | Growth Rate (Fibroblast; 12 h, replicate number 1): -1; Growth Rate (HEK-293T; 0 h, replicate number 1): 0.64; Growth Rate (HEK-293T; 0 h, replicate number 2): -0.1
Clc1cccc(Nc2nccc(NCCCN3CCOCC3)n2)c1 | -0.99 | -0.07 | 0.14 | 0.39 | 0.57 | 0.53 |  |  | 0.73 |  | 0.82 |  | 0.7 | 0.27 | 0.34 |  | 0.37 | 0.82 | 0.69 | 0.51 | Growth Rate (Fibroblast; 12 h, replicate number 1): 0.59; Growth Rate (Fibroblast; 18 h, replicate number 1): 0.6; Growth Rate (Fibroblast; 24 h, replicate number 1): 0.48; Growth Rate (U2OS; 0 h, replicate number 1): -0.75; Growth Rate (U2OS; 6 h, replicate number 2): 0.73; Growth Rate (HEK-293T; 0 h, replicate number 2): 0.13; Growth Rate (HEK-293T; 24 h, replicate number 1): 0.38
COC(=O)c1cc2c(cn1)[nH]c1ccccc12 [BETA-CCM] | 0.3 |  | -0.82 | 0.65 | 0.98 | 0.9 | -0.72 | 0.72 | 0.95 | 0.85 | 1 | 0.98 | 0.97 | 0.67 |  | 0.64 |  | 0.78 | 0.86 | 0.4 | Growth Rate (Fibroblast; 12 h, replicate number 1): -1; Growth Rate (U2OS; 6 h, replicate number 2): 0.6
CCN1CCN(Cc2ccc(NC(=O)Nc3ccc(Oc4cc(NC)ncn4)cc3)cc2C(F)(F)F)CC1 [AST-487] | 0.93 |  |  |  | 0.81 | 0.4 | -0.84 |  | 0.86 | 0.36 | 0.41 | 0.19 | 0.08 |  |  | -0.4 |  | -0.29 | -0.21 | -1 | Growth Rate (HEK-293T; 0 h, replicate number 1): -0.91; Growth Rate (HEK-293T; 6 h, replicate number 2): -0.54
CCNCCNC(=O)c1c(C)[nH]c(/C=C2\C(=O)Nc3ccc(F)cc32)c1C |  |  |  | 0.44 | 0.18 | 0.1 | -0.6 |  |  | 0.78 | 0.77 | 0.69 | 0.7 | -0.62 | -0.52 | -0.09 | -0.32 | 0.09 | 0.21 | -0.96 | Growth Rate (Fibroblast; 12 h, replicate number 1): -1; Growth Rate (HEK-293T; 6 h, replicate number 2): -0.16; Growth Rate (HEK-293T; 24 h, replicate number 1): -0.09
CN(C)C/C=C/C(=O)Nc1cccc(C(=O)Nc2ccc(Nc3nccc(-c4cccnc4)n3)cc2)c1 |  | 0.35 | 0.47 | -0.34 | -0.31 | -0.26 |  | 0.85 | 0.74 | 0.46 | 0.42 | 0.27 | 0.13 | -0.88 | -0.9 | -0.52 | -0.74 | -0.44 | -0.37 | -1 | Growth Rate (U2OS; 0 h, replicate number 1): -0.34; Growth Rate (HEK-293T; 0 h, replicate number 2): 0.56; Growth Rate (HEK-293T; 6 h, replicate number 2): -0.56; Growth Rate (HEK-293T; 24 h, replicate number 1): -0.55
Cc1cc(CN(CC(=O)Nc2ccc(Cl)cc2Cl)C2CCCCC2)ccc1OCC(=O)O |  | -0.93 | 0.35 | 0.9 | 0.88 | 0.87 |  |  | 0.97 |  |  |  |  |  |  |  |  |  |  |  | Growth Rate (U2OS; 6 h, replicate number 1): 0.64; Growth Rate (HEK-293T; 0 h, replicate number 1): 0.78; Growth Rate (HEK-293T; 0 h, replicate number 2): 0.19
